Consider 51 compounds from PubChem BioAssay AID1996.

SMILES strings stand for the structures. Converted amounts (≈) assume the structure as drawn.

For the series the following is noted: buffer; pH 7.4; 200.0 µM.
`Cc1ccc(C)c(NC(=O)NCc2ccccn2)c1`: the kinetic solubility came to 35.4 µg/mL (≈ 139 µM).
Regarding `CC(OC(=O)c1ccccn1)C(=O)Nc1nc(-c2ccc(F)c(F)c2)cs1` (stereo unspecified), the kinetic solubility was 7.9 µg/mL (≈ 20.3 µM).
To `Cc1cc(NC(=O)COc2ccc3ccccc3c2)no1` belongs 0.6 µg/mL (≈ 2.13 µM).
The compound `Cc1c(C(=O)OC(C)C(=O)N(C)Cc2ccccc2)oc2ccccc12` (stereo unspecified) yielded a solubility (kinetic) of 18.5 µg/mL (≈ 52.6 µM).
`CCNc1nc(NC(C)C)nc(N(C#N)C(C)C(=O)N(CC)CC)n1` (stereo unspecified): the kinetic solubility is greater than 52.3 µg/mL.
As for `CC1CCCN(Cc2ccc(OCc3ccccc3)cc2)C1` (stereo unspecified), the solubility (kinetic) was determined as 31.5 µg/mL (≈ 107 µM).
To `NC(=O)c1ccc(NC(=O)COC(=O)C2COc3ccccc3O2)cc1` (stereo unspecified) belongs greater than 53.5 µg/mL.
`CC(=O)CSc1nnc2cc(C)c3ccccc3n12` had a kinetic solubility greater than 40.7 µg/mL.
To `O=C(COc1ccc([N+](=O)[O-])cc1)NCCc1nc2ccccc2[nH]1` belongs 8.5 µg/mL (≈ 25 µM).
To `O=C(O)c1ccccc1Nc1cc(Cl)c2nonc2c1[N+](=O)[O-]` belongs 43.3 µg/mL (≈ 129 µM); to `COc1ccccc1CCNC(=O)c1csc2c1CCCC2`, 1 µg/mL (≈ 3.17 µM); to `Cc1ccccc1CNC(=O)C1CCC(=O)N(C2CC2)C1` (stereo unspecified), 36.8 µg/mL (≈ 129 µM).
As for `CCCCOP(=O)(OCCCC)C(O)c1ccc(N(C)C)cc1` (stereo unspecified), the kinetic solubility is greater than 51.5 µg/mL.
Consider `O=C(N/N=C/c1ccccc1C(F)(F)F)c1ccc(O)cc1`, for which the kinetic solubility was greater than 46.2 µg/mL.
In turn, `COc1ccc(CNC(=O)c2cc(S(=O)(=O)N3CCCCC3)ccc2Cl)cc1OC` returned a solubility (kinetic) of 3.1 µg/mL (≈ 6.84 µM).
With `CCOc1ccc(S(=O)(=O)N2CN3CCN(C3)C2)cc1`, the solubility (kinetic) is greater than 44.6 µg/mL.
`Fc1ccccc1CN1CCC(Cc2ccccc2)CC1`: the solubility (kinetic) came to 25.9 µg/mL (≈ 91.4 µM).
`COc1cc(CN2CCC(Cc3ccccc3)CC2)c([N+](=O)[O-])cc1OC` showed a kinetic solubility of 33.5 µg/mL (≈ 90.4 µM).
To `CCNC(=S)N1CCC(C(=O)c2ccc(Cl)cc2)CC1` belongs greater than 46.6 µg/mL; to `Cc1nnc(SCC(=O)N(C)C2CCCCC2)n1C`, greater than 42.4 µg/mL; to `COc1ccc(C(=O)Nc2cc(C)on2)c(OC)c1`, 21.4 µg/mL (≈ 81.6 µM).
With `N#C/C(=C\c1cc(Br)ccc1F)C(=O)NC1CC1`, the solubility (kinetic) stood at 13.1 µg/mL (≈ 42.4 µM).
On to `CC(C)c1ccc(NC(=O)COC(=O)C2CC3C=CC2C3)cc1` (stereo unspecified), for which the solubility (kinetic) turned out to be 22.1 µg/mL (≈ 70.5 µM).
To `Cc1ccc(NC(=O)CSc2nc(C)c(Cc3ccccc3)c(=O)[nH]2)cc1` belongs 1.4 µg/mL (≈ 3.69 µM).
Regarding `CCN(CC(=O)NCc1ccc(F)cc1)C(=O)C1CC1C` (stereo unspecified), the kinetic solubility was greater than 43.9 µg/mL.
To `CN(C)C(C)(C)/C=C/C(O)(c1ccccc1)c1ccccc1` belongs 43 µg/mL (≈ 146 µM); to `O=C(NCCc1ccccn1)c1ccc(OC(F)F)cc1`, greater than 43.8 µg/mL; to `COc1ccc(C(CC(=O)O)N2C(=O)CCC2=O)cc1` (stereo unspecified), greater than 41.6 µg/mL.
To `COc1cc(CO)ccc1OCC(=O)N1CCc2ccccc21` belongs greater than 47 µg/mL.
`C=CCNC(=O)NC(=O)CSc1nnc(C(F)(F)F)n1C`: the solubility (kinetic) is greater than 48.5 µg/mL.
As for `O=C(CNc1cccc([N+](=O)[O-])c1)NC(=O)NC1CCCCC1`, the kinetic solubility turned out to be 30 µg/mL (≈ 93.6 µM).
Compound `CN1CC(C#N)C2(O)c3ccccc3CCC2C1` (stereo unspecified) gave a solubility (kinetic) greater than 36.3 µg/mL.
To `CC(=O)Nc1ccc(/C=C/c2noc(-c3ccccc3O)n2)cc1` belongs less than 0.2 µg/mL.
`CCN(CC(=O)NCc1ccco1)S(=O)(=O)c1ccc(F)cc1` came in with a kinetic solubility greater than 51.1 µg/mL.
To `COC(=O)c1cc(-n2cccc2)ccc1N1CCOCC1` belongs 35.6 µg/mL (≈ 124 µM); to `c1ccc2ncccc2c1`, 12.4 µg/mL (≈ 96 µM); to `CC1(C)Cc2ccccc2-c2nc3n(c(=O)c21)CCCS3`, 0.9 µg/mL (≈ 3.02 µM).
Compound `CC(Nc1nc(=S)nc(Nc2ccc(F)cc2)[nH]1)c1ccccc1` (stereo unspecified) returned a solubility (kinetic) of 0.6 µg/mL (≈ 1.76 µM).
Compound `CC(=O)Nc1ccc(CNC(=O)C[N+]2(C)CCOCC2)cc1.[Cl-]` yielded a kinetic solubility of 46.2 µg/mL. Compared with the last compound, the solubility kinetic is about 77-fold higher.
Regarding `CC(C)c1ccc(NC(=O)N2C[C@H]3C[C@@H](C2)c2cccc(=O)n2C3)cc1`, the kinetic solubility is greater than 52.7 µg/mL.
With `CCCc1cc(=O)[nH]c(SCC(=O)c2cc(C)n(CC3CCCO3)c2C)n1` (stereo unspecified), the kinetic solubility was greater than 58.4 µg/mL.
To `Cc1cccc(C(=O)Nc2cccc3cccnc23)c1` belongs 2.6 µg/mL (≈ 9.91 µM).
As to `O=C(CN1C(=O)NC2NC(=O)NC21)N/N=C/c1ccccc1F` (stereo unspecified), the kinetic solubility is greater than 48 µg/mL.
Compound `c1ccc(-c2csc(-c3cccnc3)n2)cc1` yielded a kinetic solubility of 8.5 µg/mL (≈ 35.7 µM).
Consider `CC(C(=O)N1CCc2ccccc21)N1CCN(Cc2ccccc2)CC1` (stereo unspecified), for which the kinetic solubility was greater than 52.4 µg/mL.
In the case of `O=C(OC1CCOC1=O)c1ccc(N2CCCC2)c([N+](=O)[O-])c1` (stereo unspecified), the solubility (kinetic) was greater than 48 µg/mL.
Consider `COc1cccc(Nc2ccc(C(=O)O)cc2N)c1`, for which the solubility (kinetic) was greater than 38.7 µg/mL.
In the case of `Cc1cccc(C)c1NC(=S)N1CCCCCC1`, the kinetic solubility is greater than 39.4 µg/mL.
To `CCOC(=O)CCSc1cc(C)c2ccccc2n1` belongs 4.3 µg/mL (≈ 15.6 µM).
The compound `CCOC(=O)c1cnc2cc(F)c(F)cc2c1N1CCOCC1` registered a solubility (kinetic) of 39.4 µg/mL (≈ 122 µM).
To `Cc1cc(C)cc(NC(=O)CN2C(=O)c3ccccc3C2=O)c1` belongs 0.5 µg/mL (≈ 1.62 µM).
